According to patent publication US12139473B2, “Substituted-N-heteroaryl compounds and uses thereof” (Bionomics Limited, priority 2019, dated 2024):

Biological target: T1, hKv3.1 (Homo sapiens, UniProt P48547)
T1 construct: expressed in transfected cells
T1 sequence (P48547 1-511): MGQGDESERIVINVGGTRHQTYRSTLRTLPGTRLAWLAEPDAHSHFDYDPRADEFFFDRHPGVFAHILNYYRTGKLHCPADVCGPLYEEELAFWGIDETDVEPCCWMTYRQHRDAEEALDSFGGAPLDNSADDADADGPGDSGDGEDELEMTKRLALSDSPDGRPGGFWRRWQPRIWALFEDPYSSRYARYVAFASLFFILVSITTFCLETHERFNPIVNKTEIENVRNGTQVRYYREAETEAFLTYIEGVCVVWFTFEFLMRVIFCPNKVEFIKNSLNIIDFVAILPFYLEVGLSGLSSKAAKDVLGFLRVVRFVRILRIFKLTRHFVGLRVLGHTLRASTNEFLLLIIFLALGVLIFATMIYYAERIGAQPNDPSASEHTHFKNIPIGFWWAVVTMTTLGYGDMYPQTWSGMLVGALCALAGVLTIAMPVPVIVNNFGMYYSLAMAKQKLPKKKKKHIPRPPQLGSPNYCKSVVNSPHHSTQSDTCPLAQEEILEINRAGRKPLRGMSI
Test: Automated patch clamp electrophysiology (Patchliner), CHO/Kv3.1 cells
Type: cell-based
Conditions: 10 μM compound, hKv3.1 in CHO-K1, whole-cell; for Kv3.1 Activity at 10 μM Potentiation (%): peak current at voltage step of −10 mV vs vehicle (0.33% DMSO); for Kv3.1 Activity at 10 μM Voltage Shift (mV): voltage shift of the IV curve at V1/2
Procedure: hKv3.1, hKv3.2, hKv3.3, and hKv3.4 were stably expressed in CHO-K1 (Chinese hamster ovary) cells and kept under constant antibiotic selection. For in vitro assays, cells were maintained in appropriate growth medium at 37° C. and 5% CO2 in a humidified incubator.
hKv3.X expressing cells were plated in T-25 flasks for 3-4 days at 37° C. (no selection antibiotic) prior to use and grown to 80% confluence. Cells were washed twice with PBS (calcium and magnesium free) and detached with a 5-minute treatment at 37° C. with 2-3 mls of Accutase®. Cells were collected, and flask was washed in CHO-SFM II media (Life Technologies Gibco), centrifuged for 2 minutes at ˜110×g and resuspended to obtain a single cell suspension of ˜2-3×10^6 cells/ml.
The intracellular solution contained the following (in mM): KCl 50, NaCl 10, KF 60, EGTA 20, HEPES 10, adjusted to pH 7.2 with KOH and an osmolarity of 285 mOsmol. Seal enhancer was purchased from Nanion (80 mM NaCl, 3 mM KCl, 10 mM MgCl2, 35 mM CaCl2), 10 mM HEPES, pH7.4, 298 mOsmol. The external solution contained (in mM): NaCl 140, KCl 4, CaCl2) 2, MgCl2 1, HEPES 10, Glucose 5, adjusted to pH7.4 and an osmolarity of 298 mOsmol.
All compounds were initially tested at 10 uM at a final DMSO concentration of 0.33%. Compounds were dissolved in dimethylsulfoxide (DMSO) at a stock concentration of 30 mM. The compound was further diluted 1:10 to give a stock concentration of 3 mM in DMSO. The final assay solution was diluted 1:300 in External solution to give a final concentration of 10 uM. For the DMSO Control Buffer 30 uL of DMSO was added to 10 mL buffer.
All electrophysiological recordings were performed at ambient temperature (21-23° C.) using automated patch clamp (Patchliner, Nanion Technologies GmbH) in the whole-cell configuration.
Cell membrane potentials were held at −80 mV, and currents were evoked by voltage steps (1000 ms duration) from −60 to +60 mV in 10 mV increments. This was performed first with vehicle (0.33% DMSO) and then with 10 uM compound, after a 3-minute incubation period. Data was taken from 4 cells per assay.
The recordings were analysed and selected using peak current amplitude (>100 pA at the −10 mV voltage step) in the absence of compound to eliminate unsuitable cells from analysis. Peak current amplitude was measured and recorded for each voltage step and data was normalised to the maximum current at +60 mV. The normalised Kv3.x currents following addition of the compound were then compared with the currents recorded prior to compound addition (vehicle control). Positive modulation was determined as % potentiation at the voltage step of −10 mV=[current (cmpd)/current (veh)]*100−100. % potentiation≥50% was considered acceptable. In addition, voltage shift of the IV curve at V1/2 was measured. V1/2 of ≥−5 mV was also considered acceptable. IV curves were plotted in GraphPad Prism (software version 6.0) and fitted with a Boltzmann equation, where V1/2 is the voltage at half-maximal activation.

| Structure (SMILES) | Kv3.1 Activity at 10 μM Potentiation (%) | Kv3.1 Activity at 10 μM Voltage Shift (mV) |
| --- | --- | --- |
| CC[C@@]1(C)NC(=O)N(c2cc(Oc3ccc(C)c(OC)c3)ncn2)C1=O [Example 2, (5R)-5-ethyl-3-[6-(3-methoxy-4-methyl-phenoxy)pyrimidin-4-yl]-5-methyl-imidazolidine-2,4-dione] | 16 | −1.9 mV |
| CC[C@]1(C)NC(=O)N(c2cc(Oc3ccc(C)c(OC)c3)ncn2)C1=O [Example 3, (5S)-5-ethyl-3-[6-(3-methoxy-4-methyl-phenoxy)pyrimidin-4-yl]-5-methyl-imidazolidine-2,4-dione] | 34 | −2.1 mV |
| CCC1(CC)NC(=O)N(c2cc(Oc3ccc(C)c(OC)c3)ncn2)C1=O [Example 4, 3-[6-(3-methoxy-4-methyl-phenoxy)pyrimidin-4-yl]-5,5-diethyl-imidazolidine-2,4-dione] | 25 | −0.9 mV |
| COc1cc(Oc2cc(N3C(=O)NC4(CCC4)C3=O)ncn2)ccc1C [Example 5, 7-[6-(3-methoxy-4-methyl-phenoxy)pyrimidin-4-yl]-5,7-diazaspiro[3.4]octane-6,8-dione] | 35 | −3.2 mV |
| COc1cc(Oc2cc(N3C(=O)N[C@](C)(C(C)C)C3=O)ncn2)ccc1C [Example 8, (5R)-5-isopropyl-3-[6-(3-methoxy-4-methyl-phenoxy)pyrimidin-4-yl]-5-methyl-imidazolidine-2,4-dione] | 48 | −3.1 mV |
| COc1ccccc1Oc1cc(N2C(=O)NC(C)(C)C2=O)ncn1 [Example 9, 3-[6-(2-methoxyphenoxy)pyrimidin-4-yl]-5,5-dimethyl-imidazolidine-2,4-dione] | 22 | −2.2 mV |
| COc1cccc(Oc2cc(N3C(=O)NC(C)(C)C3=O)ncn2)c1 [Example 10, 3-[6-(3-methoxyphenoxy)pyrimidin-4-yl]-5,5-dimethyl-imidazolidine-2,4-dione] | 3 | +0.4 mV |
| COc1ccc(Oc2cc(N3C(=O)NC(C)(C)C3=O)ncn2)cc1 [Example 11, 3-[6-(4-methoxyphenoxy)pyrimidin-4-yl]-5,5-dimethyl-imidazolidine-2,4-dione] | 8 | −1.3 mV |
| COc1ccc(Oc2cc(N3C(=O)NC(C)(C)C3=O)ncn2)cc1F [Example 12, 3-[6-(3-fluoro-4-methoxy-phenoxy)pyrimidin-4-yl]-5,5-dimethyl-imidazolidine-2,4-dione] | 13 | −0.3 mV |
| COc1cc(C)cc(Oc2cc(N3C(=O)NC(C)(C)C3=O)ncn2)c1 [Example 17, 3-[6-(3-methyl-5-methoxy-phenoxy)pyrimidin-4-yl]-5,5-dimethyl-imidazolidine-2,4-dione] | 7 | −0.2 mV |
| COc1ccc(C)c(Oc2cc(N3C(=O)NC(C)(C)C3=O)ncn2)c1 [Example 18, 3-[6-(2-methyl-5-methoxy-phenoxy)pyrimidin-4-yl]-5,5-dimethyl-imidazolidine-2,4-dione] | 53 | −2.7 mV |
| COc1c(C)cccc1Oc1cc(N2C(=O)NC(C)(C)C2=O)ncn1 [Example 19, 3-[6-(2-methoxy-3-methyl-phenoxy)pyrimidin-4-yl]-5,5-dimethyl-imidazolidine-2,4-dione] | 15 | −1.7 mV |
| COc1ccc(Oc2cc(N3C(=O)NC(C)(C)C3=O)ncn2)cc1C [Example 20, 3-[6-(3-methyl-4-methoxy-phenoxy)pyrimidin-4-yl]-5,5-dimethyl-imidazolidine-2,4-dione] | 37 | −3.3 mV |
| COc1cc(C)ccc1Oc1cc(N2C(=O)NC(C)(C)C2=O)ncn1 [Example 21, 3-[6-(2-methoxy-4-methyl-phenoxy)pyrimidin-4-yl]-5,5-dimethyl-imidazolidine-2,4-dione] | 29 | −1.4 mV |
| Cc1ccc(Oc2cc(N3C(=O)NC(C)(C)C3=O)ncn2)cc1C#N [Example 22, 5-[6-(4,4-dimethyl-2,5-dioxo-imidazolidin-1-yl)pyrimidin-4-yl]oxy-2-methyl-benzonitrile] | 31 | −2.3 mV |
| CC1(C)NC(=O)N(c2cc(Oc3cccnc3)ncn2)C1=O [Example 23, 5,5-dimethyl-3-[6-(3-pyridyloxy)pyrimidin-4-yl]imidazolidine-2,4-dione] | 28 | −0.9 mV |
| Cc1ccc(Oc2cc(N3C(=O)NC(C)(C)C3=O)ncn2)cn1 [Example 24, 5,5-dimethyl-3-[6-[(6-methyl-3-pyridyl)oxy]pyrimidin-4-yl]imidazolidine-2,4-dione] | 33 | −4.0 mV |
| COc1cncc(Oc2cc(N3C(=O)NC(C)(C)C3=O)ncn2)c1 [Example 25, 5,5-dimethyl-3-[6-[(5-methoxy-3-pyridyl)oxy]pyrimidin-4-yl]imidazolidine-2,4-dione] | 6 | −0.1 mV |
| Cc1ccccc1Oc1cc(N2C(=O)NC(C)(C)C2=O)ncn1 [Example 26, 3-[6-(2-methylphenoxy)pyrimidin-4-yl]-5,5-dimethyl-imidazolidine-2,4-dione] | 17 | −2.2 mV |
| Cc1cccc(Oc2cc(N3C(=O)NC(C)(C)C3=O)ncn2)c1 [Example 27, 3-[6-(3-methylphenoxy)pyrimidin-4-yl]-5,5-dimethyl-imidazolidine-2,4-dione] | −17 | +2.11 mV |
| Cc1ccc(Oc2cc(N3C(=O)NC(C)(C)C3=O)ncn2)cc1 [Example 28, 3-[6-(4-methylphenoxy)pyrimidin-4-yl]-5,5-dimethyl-imidazolidine-2,4-dione] | 3 | −1.1 mV |
| Cc1ccc(Oc2cc(N3C(=O)NC(C)(C)C3=O)ncn2)cc1C [Example 29, 3-[6-(3,4-dimethylphenoxy)pyrimidin-4-yl]-5,5-dimethyl-imidazolidine-2,4-dione] | 10 | −1.6 mV |
| CCc1cc(Oc2cc(N3C(=O)NC(C)(C)C3=O)ncn2)ccc1C [Example 30, 3-[6-(3-ethyl-4-methylphenoxy)pyrimidin-4-yl]-5,5-dimethyl-imidazolidine-2,4-dione] | 63 | −2.1 mV |
| CC1(C)NC(=O)N(c2cc(Oc3ccc4c(c3)CCC4)ncn2)C1=O [Example 31, 3-(6-indan-5-yloxypyrimidin-4-yl)-5,5-dimethyl-imidazolidine-2,4-dione] | 65 | −3.3 mV |
